# Assay results taken from patent US8415351B2 (priority 2007, dated 2013).
# Tests used:
# HCV = settings: hepatitis C treatment regimens, background; cited from earlier work
# [1] = system: genotype 1a-H77 subgenomic replicon cell line; assay: microbe, parasite or virus in culture; assay type: cell-based, HCV; settings: Hepatitis C virus, read-out: EC50 1a
# [2] = system: genotype 1b-Con1 subgenomic replicon cell line; assay: microbe, parasite or virus in culture; assay type: cell-based, HCV; settings: Hepatitis C virus, read-out: EC50 1b
# [3] = molecular target: T1, HCV polymerase 1A (Δ21 NS5B, H77) (Hepatitis C virus genotype 1a, UniProt P27958); assay: biochemical; settings: IC50 1a
# T1 construct: 20 to 50 nM Δ21 NS5B
# T1 sequence (P27958 2421-2990, stated change not applied): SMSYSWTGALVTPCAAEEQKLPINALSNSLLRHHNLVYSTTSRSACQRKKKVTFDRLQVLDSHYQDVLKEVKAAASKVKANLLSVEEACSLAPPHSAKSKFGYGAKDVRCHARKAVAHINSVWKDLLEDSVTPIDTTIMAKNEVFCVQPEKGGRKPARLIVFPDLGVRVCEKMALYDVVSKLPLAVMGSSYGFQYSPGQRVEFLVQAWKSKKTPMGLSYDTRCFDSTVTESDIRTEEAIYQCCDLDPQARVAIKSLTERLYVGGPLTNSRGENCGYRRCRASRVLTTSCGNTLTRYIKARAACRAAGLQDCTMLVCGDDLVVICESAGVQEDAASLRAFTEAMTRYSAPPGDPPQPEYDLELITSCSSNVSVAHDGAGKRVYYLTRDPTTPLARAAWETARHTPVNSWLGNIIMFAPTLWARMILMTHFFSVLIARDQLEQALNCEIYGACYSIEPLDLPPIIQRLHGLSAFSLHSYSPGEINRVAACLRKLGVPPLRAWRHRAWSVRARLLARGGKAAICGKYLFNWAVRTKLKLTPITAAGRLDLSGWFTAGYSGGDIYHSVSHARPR
# In short: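 Incorporation of 1 μM ^3H-UTP, with 20 μM each of CTP and ATP on 5 nM template RNA, ran 2–4 h at room temperature. Spermine-precipitated product was filtered and scintillation-counted. IC50 came from tight-binding non-linear regression of cpm against inhibitor concentration.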
# [4] = molecular target: T2, HCV polymerase 1B (Δ21 NS5B, BK) (Hepatitis C virus genotype 1b, UniProt P26663); assay: biochemical
# T2 construct: 20 to 50 nM Δ21 NS5B
# T2 sequence (P26663 2420-2989, stated change not applied): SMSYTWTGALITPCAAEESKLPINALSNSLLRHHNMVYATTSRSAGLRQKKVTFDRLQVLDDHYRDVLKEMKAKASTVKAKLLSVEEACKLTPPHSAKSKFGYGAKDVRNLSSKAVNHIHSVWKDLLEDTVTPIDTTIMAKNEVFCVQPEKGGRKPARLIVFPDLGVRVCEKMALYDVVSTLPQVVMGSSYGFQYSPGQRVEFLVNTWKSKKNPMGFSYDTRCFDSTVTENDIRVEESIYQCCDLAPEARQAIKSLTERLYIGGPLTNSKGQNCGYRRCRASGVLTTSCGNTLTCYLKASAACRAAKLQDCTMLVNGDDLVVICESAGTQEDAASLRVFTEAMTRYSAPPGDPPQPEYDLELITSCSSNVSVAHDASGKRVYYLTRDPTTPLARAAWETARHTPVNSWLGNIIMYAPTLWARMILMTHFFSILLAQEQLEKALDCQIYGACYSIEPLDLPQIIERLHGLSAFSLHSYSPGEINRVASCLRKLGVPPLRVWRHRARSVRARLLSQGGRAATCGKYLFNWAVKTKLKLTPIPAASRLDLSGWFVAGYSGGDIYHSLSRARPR
# In short: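 Δ21 NS5B (genotype 1b, BK […]) preincubated 15 min RT with inhibitor, 2 mM MnCl2, pH 7.4, 60–125 μM GTP; started with 20 μM CTP/ATP, 1 μM 3H-UTP, 5 nM template RNA, run 2–4 h RT. Spermine-precipitated RNA filter-captured, scintillation counted; IC50 from tight-binding (Morrison) fit.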
SMILES,suppression of HCV levels / effectiveness (HCV),melting point [°C],EC50 [1] [nM],EC50 [2] [nM],IC50 [3] [nM],IC50 [4] [nM]
NC(=O)c1ncn([C@@H]2O[C@H](CO)[C@@H](O)[C@H]2O)n1 [ribavirin],does not effectively suppress HCV levels,,,,,
"COc1c(C#C[Si](C)(C)C)cc(-n2ccc(=O)[nH]c2=O)cc1-c1ccc2cc(NS(C)(=O)=O)ccc2c1 [IB-L0-2.78, N-(6-(5-(2,4-dioxo-3,4-dihydropyrimidin-1(2H)-yl)-2-methoxy-3-((trimethylsilyl)ethynyl)phenyl)naphthalen-2-yl)methanesulfonamide]",,175 to 178,,,,
"CCOc1c(-c2ccc3cc(NS(C)(=O)=O)ccc3c2)cc(-n2ccc(=O)[nH]c2=O)cc1C(C)(C)C [IB-L0-2.23, N-(6-(3-tert-butyl-5-(2,4-dioxo-3,4-dihydropyrimidin-1(2H)-yl)-2-ethoxyphenyl)naphthalen-2-yl)methanesulfonamide]",,196 to 202,100 to 1000,10 to 100,,
"COc1c(-c2ccc3cc(NS(C)(=O)=O)ccc3c2)cc(-n2ccc(=O)[nH]c2=O)cc1-c1ccc(C)o1 [IB-L0-2.58, N-(6-(5-(2,4-dioxo-3,4-dihydropyrimidin-1(2H)-yl)-2-methoxy-3-(5-methylfuran-2-yl)phenyl)naphthalen-2-yl)methanesulfonamide]",,174 to 178,10 to 100,< 10,,
"CC(C)(C)c1cc(-n2ccc(=O)[nH]c2=O)cc(-c2ccc3cc(NS(C)(=O)=O)ccc3c2)c1Cl [IB-L0-2.14, N-(6-(3-tert-butyl-2-chloro-5-(2,4-dioxo-3,4-dihydropyrimidin-1(2H)-yl)phenyl)naphthalen-2-yl)methanesulfonamide]",,> 280,100 to 1000,10 to 100,,
"COc1c(-c2ccc3cc(NS(C)(=O)=O)ccc3c2)cc(-n2ccc(=O)[nH]c2=O)cc1C(C)(C)CO [IB-L0-2.54, N-(6-(5-(2,4-dioxo-3,4-dihydropyrimidin-1(2H)-yl)-3-(1-hydroxy-2-methylpropan-2-yl)-2-methoxyphenyl)naphthalen-2-yl)methanesulfonamide]",,256 to 257,10 to 100,10 to 100,,
"COc1c(-c2ccc3cc(NS(C)(=O)=O)ccc3c2)cc(-n2ccc(=O)[nH]c2=O)cc1C(C)(C)C(=O)O [IB-L0-2.77, 2-(5-(2,4-dioxo-3,4-dihydropyrimidin-1(2H)-yl)-2-methoxy-3-(6-(methylsulfonamido)naphthalen-2-yl)phenyl)-2-methylpropanoic acid]",,> 300,,,,
"COc1c(COc2ccc(NS(C)(=O)=O)cc2)cc(N2CCC(=O)NC2=O)cc1C(C)(C)C [IA-L6-1.1, N-(4-(3-tert-butyl-5-(2,4-dioxotetrahydropyrimidin-1(2H)-yl)-2-methoxybenzyloxy)phenyl)methanesulfonamide]",,,100 to 1000,10 to 100,10 to 100,100 to 1000
"COc1c(-c2ccc3cc(NS(C)(=O)=O)ccc3c2)cc(-n2ccc(=O)[nH]c2=O)cc1C(F)(F)C(F)(F)F [IB-L0-2.60, N-(6-(5-(2,4-dioxo-3,4-dihydropyrimidin-1(2H)-yl)-2-methoxy-3-(perfluoroethyl)phenyl)naphthalen-2-yl)methanesulfonamide]",,162 to 165,100 to 1000,10 to 100,,
"COc1c(-c2ccc3c(c2)CCC3O)cc(-n2ccc(=O)[nH]c2=O)cc1C(C)(C)C (stereo not shown) [IB-L0-2.36, 1-(3-tert-butyl-5-(1-hydroxy-2,3-dihydro-1H-inden-5-yl)-4-methoxyphenyl)pyrimidine-2,4(1H,3H)-dione]",,,100 to 1000,10 to 100,10 to 100,100 to 1000
"COc1c(-c2ccc(/C=N/NS(C)(=O)=O)c(F)c2F)cc(N2CCC(=O)NC2=O)cc1C(C)(C)C [IA-L0-1.6, (E)-N′-((3′-tert-butyl-5′-(2,4-dioxotetrahydropyrimidin-1(2H)-yl)-2,3-difluoro-2′-methoxybiphenyl-4-yl)methylene)methanesulfonohydrazide]",,,100 to 1000,10 to 100,10 to 100,10 to 100
"COc1c(C#Cc2ccc(NS(C)(=O)=O)cc2C(F)(F)F)cc(N2CCC(=O)NC2=O)cc1C(C)(C)C [IA-L2-1.18, N-(4-((3-tert-butyl-5-(2,4-dioxotetrahydropyrimidin-1(2H)-yl)-2-methoxyphenyl)ethynyl)-3-(trifluoromethyl)phenyl)methanesulfonamide]",,,10 to 100,< 10,< 10,< 10
